Here are results for 1 compound from paper PMC5077990, “P53 activation inhibits all types of hematopoietic progenitors and all stages of megakaryopoiesis” (Oncotarget, 2016).

In assay [1] the test system is Day 8-erythroblasts. The assay is described as follows: Viable erythroblasts counted by Trypan blue exclusion. The assay is classed as cell-based. The note with it: Homo sapiens, day 8-erythroblasts treated 48 hours, read-out: IC50, decrease in viable cells.
Method: Day 8-erythroblasts were treated with various doses of SAR405838 or MI-219 for 48 hours. The viable cells were counted by Trypan blue exclusion and the apoptotic cells were quantified by flow cytometry analysis using annexin V/ propidium iodide labeling.
B. Day 8-erythroblasts were treated with various doses of MI-219 or SAR405838 for 48 hours and counted by trypan blue exclusion. C. Day 8-erythroblasts were treated with various doses of MI-219 or SAR405838 for 48 hours and apoptotic cells were analyzed by flow cytometry using Annexin V assay. The results represent the mean of 3 independent experiments. * represents statistical significance (*P<0.05; **P<0.01; ***P<0.001).
The test system of assay [2] is Day 6-megakaryoblasts. The assay is described as follows: Viability of day 6-megakaryoblasts. The class given is cell-based, human. The note with it: 0.5 μM, 72 hours. As for the experimental part: We also explored the effects of p53 stabilization at a later stage of megakaryocytic differentiation. […] Day 7-MKs were treated with 5 μM Nutlin 3a for 24 or 48 hours, which led to an increase in p53, p21, BAX, BCL2 and BCL-XL levels, confirming a functional p53 activity (Figure 6A). […] Similar results were found with day 6-megakaryoblasts treated with two doses of SAR405838 for 72 hours (Figure 6D/6E) without any major effect on the percentage of CD41^+ cells (Figure 6F). […] As shown in Figure 6D/6E, at the dose of 0.5 μM the SAR405838 induced a 50% decreased in the number of viable cells while the apoptotic cells reached 50% of the total cells. We checked if the effect of SAR405838 on MKs could be reverted by the addition of high TPO doses. CD34^+ progenitors were cultured in serum-free medium supplemented with SCF and low dose of TPO (1 ng/mL) for 6 days. Day 6-megakaryoblasts were then treated with 1.5 μM of SAR405838 for 48 hours and various doses of TPO.
In parallel, the expression of P53, BAK, BCL2L1, NOXA, PUMA, BAX, P21 and P53 were quantified by qRT-PCR related to HPRT. C. […] (n=3). D, E, F. Day 6-megakaryoblasts were exposed to MI-219 or SAR405838 (0.5 or 1 μM for 72 hours) and cell viability (D), apoptosis (E) or CD41 expression (F) were investigated. […] One representative experiment (n= 2). […]

Assay [3] relates to Day 6 megakaryoblasts (ploidization). The assay is described as follows: MK ploidy by flow cytometry (CD41/CD42/vital Hoechst staining). The class given is cell-based, human. The conditions noted are these: day 6 megakaryoblasts treated 72 hours, analysed day 9; SAR405838 at 1 μM; untreated control 4.4 N. Here is the method:
First, we investigated if MDM2 inhibitors affect MK ploidization. SAR405838 induced a significant reduction in the mean ploidy (3.0 N at the dose of 1 μM versus 4.4 N for untreated control or for MI-219 treatment) (Supplementary Figure S1). page 1: P53 activation inhibits all types of hematopoietic progenitors and all stages of megakaryopoiesis SUPPLEMENTARY FIGURE Supplementary Figure S1: Effect of SAR405838 on polyploidization. Day 6 megakaryoblasts were treated for 72 hours with various doses of MI-219 or SAR405838. At day 9, ploidy was analyzed by flow cytometry using a CD41/CD42/vital Hoechst staining. N represents the mean ploidy. As shown, SAR405838 induced a significant reduction in the mean ploidy (3.0N at the dose of 1μM versus 4.4N for control or for MI-219 treatment). The Figure illustrates a representative experiment in triplicate. Two other experiments in triplicate gave similar results. […]

Assay [4] concerns p53 target genes (MDM2, PUMA, P21) in CD34+ cells. The assay is described as follows: qRT-PCR of p53 target genes in CD34+ cells. The assay is classed as cell-based, human. The conditions noted are these: CD34+ cells cultured one day with TPO and SCF; doses 0.75 M, 1.5 μM, 2.5 μM and 5 μM. As for the experimental part: To investigate the impact of p53 stabilization on hematopoietic progenitors, CD34^+ cells were cultured for one day in serum-free medium with TPO and SCF in the presence of the MDM2 antagonist SAR405838 before quantifying the p53 target genes by qRT-PCR.
Figure 1 Effects of SAR405838 on CD34+ progenitors A. Dose-effect of SAR405838 on p53 target genes by qRT-PCR. CD34^+ cells were treated or not with SAR405838 at various doses ([…], 1.5 μM, 2.5 μM and 5 μM). The expression of P53 and its targets (MDM2, PUMA, P21) were quantified by qRT-PCR related to PPIA. Results are the mean ± SEM of 2 independent experiments in duplicate. B, C, D. Cells were seeded in methylcellulose (B, C) or in fibrin clot (D) in the presence of MI-219 or SAR405838 to assay the number of BFU-E, CFU-GM and CFU-MK progenitors. Results are presented as percentage compared to control. Results represent the mean of 3 experiments for BFU-E and CFU-GM and 3 experiments for CFU-MK made in triplicate. * represents statistical significance using student t test (* P<0.05; **P<0.01; ***P<0.001).
PCRs were carried out in the ABI Prism GeneAmp 5700 (Perkin-Elmer) using the Power SYBR-Green PCR Master Mix (ABI) containing the specific primers. The expression levels of all genes were calculated relatively to HPRT or to PPIA housekeeping gene.

Assay [5] has as its system CD34+ progenitors cultured with SCF and TPO. Nature of the assay: Viable CD34+ progenitors at early stage of megakaryocytic differentiation, Trypan blue exclusion. The conditions noted are these: Homo sapiens, read-out: IC50, decrease in number of viable cells. The assay is classed as cell-based. As for the experimental part: We explored the effect of p53 stabilization on the viability of CD34^+progenitors at early stages of megakaryocytic differentiation. CD34^+ progenitors were cultured for one day in serum-free medium supplemented with SCF and TPO and treated with SAR405838 or MI-219. After a 48 or 72 hour incubation, cells were counted by Trypan blue exclusion and apoptotic cells were quantified by flow cytometry using Annexin V / Propidium iodide labeling.
A. Cells were counted by Trypan blue exclusion.

Like-named read-outs stand apart in the source and are kept apart here.

For the compound `CC(C)(C)C[C@@H]1N[C@@H](C(=O)N[C@H]2CC[C@H](O)CC2)[C@H](c2cccc(Cl)c2F)[C@]12C(=O)Nc1cc(Cl)ccc12` [SAR405838], the half-inhibitory concentration (IC50) in assay [1] was 0.5 µM; in assay [5] (48 hours of treatment) it was roughly 1.5 µM; in assay [5] (72 hours of treatment), roughly 1.5 µM. Moreover, the “decrease in the number of viable cells” value in assay [2] is reported as 50%. For the same compound, the mean ploidy in assay [3] was 3.0 N. In addition, the “MDM2, PUMA and P21 expression (qRT-PCR related to PPIA)” value in assay [4] is “dose-dependent effect”.
